Source: patent US20240158412A1 (Faxian Therapeutics, LLC, priority 2021, published 2024)

biological target: USP7 (Homo sapiens, UniProt Q93009); experiment: biochemical
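Further: fluorescence intensity readout of USP7 enzymatic activity, reaction incubated 90 min at room temperature.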

Sequence of USP7 (Q93009 whole entry): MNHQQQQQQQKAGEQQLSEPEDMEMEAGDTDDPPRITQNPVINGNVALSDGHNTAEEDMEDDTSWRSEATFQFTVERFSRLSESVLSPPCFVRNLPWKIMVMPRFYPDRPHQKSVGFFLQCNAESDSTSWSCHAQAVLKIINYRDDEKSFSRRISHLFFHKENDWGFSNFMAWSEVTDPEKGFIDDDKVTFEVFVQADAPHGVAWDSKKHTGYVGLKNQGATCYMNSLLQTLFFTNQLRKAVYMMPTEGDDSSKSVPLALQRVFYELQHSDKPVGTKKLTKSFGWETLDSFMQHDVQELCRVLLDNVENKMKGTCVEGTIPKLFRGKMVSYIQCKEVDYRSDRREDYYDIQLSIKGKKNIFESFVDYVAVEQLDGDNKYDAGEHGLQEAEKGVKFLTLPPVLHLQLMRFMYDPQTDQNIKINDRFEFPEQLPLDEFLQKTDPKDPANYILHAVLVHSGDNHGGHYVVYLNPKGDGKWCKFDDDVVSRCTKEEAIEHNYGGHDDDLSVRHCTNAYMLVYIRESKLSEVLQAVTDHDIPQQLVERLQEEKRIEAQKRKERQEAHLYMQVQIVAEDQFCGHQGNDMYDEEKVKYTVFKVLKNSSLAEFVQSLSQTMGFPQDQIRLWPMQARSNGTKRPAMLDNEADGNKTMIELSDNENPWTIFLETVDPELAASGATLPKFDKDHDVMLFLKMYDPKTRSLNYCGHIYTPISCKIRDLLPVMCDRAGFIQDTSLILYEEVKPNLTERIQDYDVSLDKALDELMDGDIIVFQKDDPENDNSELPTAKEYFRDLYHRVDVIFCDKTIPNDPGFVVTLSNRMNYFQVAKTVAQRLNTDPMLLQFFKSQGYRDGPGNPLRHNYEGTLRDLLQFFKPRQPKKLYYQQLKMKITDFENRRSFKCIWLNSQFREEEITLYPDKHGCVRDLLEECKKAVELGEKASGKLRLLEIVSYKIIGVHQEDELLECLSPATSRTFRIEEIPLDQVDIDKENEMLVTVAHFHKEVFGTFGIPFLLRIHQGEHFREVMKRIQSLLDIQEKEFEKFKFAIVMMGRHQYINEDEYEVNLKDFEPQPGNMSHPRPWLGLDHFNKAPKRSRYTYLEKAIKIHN

| Compound | IC50 [nM] |
| --- | --- |
| N#Cc1cc(-c2ccnc3cc(CN4C(=O)CCC4=O)sc23)c2c(c1)[C@@H]1C[C@@H]1CN2[C@@H]1CNC2(CCC2)C1 [Example 168, (1aS,7bR)-4-(2-((2,5-dioxopyrrolidin-1-yl)methyl)thieno[3,2-b]pyridin-7-yl)-3-((S)-5-azaspiro[3.4]octan-7-yl)-1a,2,3,7b-tetrahydro-1H-cyclopropa[c]quinoline-6-carbonitrile] | < 10 |
| N#Cc1cc(-c2ccnc3cc(Cn4c(=O)ccn(CC(F)(F)F)c4=O)sc23)c2c(c1)[C@@H]1C[C@@H]1CN2[C@@H]1CNC2(CCC2)C1 [Example 169, (1aS,7bR)-4-(2-((2,6-dioxo-3-(2,2,2-trifluoroethyl)-3,6-dihydropyrimidin-1(2H)-yl)methyl)thieno[3,2-b]pyridin-7-yl)-3-((S)-5-azaspiro[3.4]octan-7-yl)-1a,2,3,7b-tetrahydro-1H-cyclopropa[c]quinoline-6-carbonitrile] | < 10 |
| NC(=O)c1cc(-c2ccnc3cc(Cn4c(=O)ccn(CC(F)(F)F)c4=O)sc23)c2c(c1)[C@@H]1C[C@@H]1CN2[C@@H]1CNC2(CCC2)C1 [Example 170, (1aS,7bR)-4-(2-((2,6-dioxo-3-(2,2,2-trifluoroethyl)-3,6-dihydropyrimidin-1(2H)-yl)methyl)thieno[3,2-b]pyridin-7-yl)-3-((S)-5-azaspiro[3.4]octan-7-yl)-1a,2,3,7b-tetrahydro-1H-cyclopropa[c]quinoline-6-carboxamide] | < 10 |
| CC1(C)C2C(=O)N(Cc3cc4nccc(-c5cc(Cl)cc6c5N([C@@H]5CNC7(CCC7)C5)CCO6)c4s3)C(=O)C21 (stereo partly drawn) [Example 172, 3-((7-(7-chloro-4-((S)-5-azaspiro[3.4]octan-7-yl)-3,4-dihydro-2H-benzo[b][1,4]oxazin-5-yl)thieno[3,2-b]pyridin-2-yl)methyl)-6,6-dimethyl-3-azabicyclo[3.1.0]hexane-2,4-dione] | 10 to 100 |
| O=C1COc2cc(Cl)cc(-c3ccnc4cc(Cn5ncc(C6CC6)cc5=O)sc34)c2N1[C@@H]1CNC2(CCC2)C1 [Example 174, (S)-7-chloro-5-(2-((4-cyclopropyl-6-oxopyridazin-1(6H)-yl)methyl)thieno[3,2-b]pyridin-7-yl)-4-(5-azaspiro[3.4]octan-7-yl)-2H-benzo[b][1,4]oxazin-3(4H)-one] | < 10 |
| O=C1CCC(=O)N1Cc1cc2nccc(-c3cc(Cl)cc4c3N(C3CC5(CCCN5)C3)CCC4)c2s1 (stereo not drawn) [Example 180, 1-((7-(6-chloro-1-(5-azaspiro[3.4]octan-2-yl)-1,2,3,4-tetrahydroquinolin-8-yl)thieno[3,2-b]pyridin-2-yl)methyl)pyrrolidine-2,5-dione] | 10 to 100 |
| O=C1C2CC2C(=O)N1Cc1cc2nccc(-c3cc(Cl)cc4c3N([C@@H]3CN[C@@H](CO)C3)CCC4)c2s1 (stereo partly drawn) [Example 185, 3-((7-(6-chloro-1-((3S,5R)-5-(hydroxymethyl)pyrrolidin-3-yl)-1,2,3,4-tetrahydroquinolin-8-yl)thieno[3,2-b]pyridin-2-yl)methyl)-3-azabicyclo[3.1.0]hexane-2,4-dione] | < 10 |
| O=c1cc(C2CC2)cnn1Cc1cc2nccc(-c3cc(Cl)cc4c3N([C@@H]3CN[C@@H](CO)C3)CCC4)c2s1 [Example 186, 2-[[7-[6-chloro-1-[(3S,5R)-5-(hydroxymethyl)pyrrolidin-3-yl]-3,4-dihydro-2H-quinolin-8-yl]thieno[3,2-b]pyridin-2-yl]methyl]-5-cyclopropyl-pyridazin-3-one] | < 10 |
| O=c1cc(C2CC2)cnn1Cc1cc2nccc(-c3cc(Cl)cc4c3N([C@@H]3CN[C@H](CO)C3)CCC4)c2s1 [Example 187, 2-((7-(6-chloro-1-((3S,5S)-5-(hydroxymethyl)pyrrolidin-3-yl)-1,2,3,4-tetrahydroquinolin-8-yl)thieno[3,2-b]pyridin-2-yl)methyl)-5-cyclopropylpyridazin-3(2H)-one] | < 10 |
| CC1(c2cnn(Cc3cc4nccc(-c5cc(Cl)cc6c5N([C@@H]5CN[C@@H](CO)C5)CCC6)c4s3)c(=O)c2)CC1 [Example 188, 2-((7-(6-chloro-1-((3S,5R)-5-(hydroxymethyl)pyrrolidin-3-yl)-1,2,3,4-tetrahydroquinolin-8-yl)thieno[3,2-b]pyridin-2-yl)methyl)-5-(1-methylcyclopropyl)pyridazin-3(2H)-one] | < 10 |
| CC(C)(O)[C@H]1C[C@H](N2CCCc3cc(Cl)cc(-c4ccnc5cc(CN6C(=O)CCC6=O)sc45)c32)CN1 [Example 189, 1-((7-(6-chloro-1-((3S,5R)-5-(2-hydroxypropan-2-yl)pyrrolidin-3-yl)-1,2,3,4-tetrahydroquinolin-8-yl)thieno[3,2-b]pyridin-2-yl)methyl)pyrrolidine-2,5-dione] | < 10 |
| CC(C)(C)c1cnn(Cc2cc3nccc(-c4cc(C#N)cc5c4N([C@@H]4CN[C@@H](CO)C4)CCC5)c3s2)c(=O)c1 [Example 190, 8-[2-[(4-tert-butyl-6-oxo-pyridazin-1-yl)methyl]thieno[3,2-b]pyridin-7-yl]-1-[(3S,5R)-5-(hydroxymethyl)pyrrolidin-3-yl]-3,4-dihydro-2H-quinoline-6-carbonitrile] | < 10 |
| N#Cc1cc2c(c(-c3ccnc4cc(Cn5c(=O)ccn(C6CC(F)(F)C6)c5=O)sc34)c1)N([C@@H]1CN[C@@H](CO)C1)CCC2 [Example 191, 8-(2-((3-(3,3-difluorocyclobutyl)-2,6-dioxo-2,3-dihydropyrimidin-1(6H)-yl)methyl)thieno[3,2-b]pyridin-7-yl)-1-((3S,5R)-5-(hydroxymethyl)pyrrolidin-3-yl)-1,2,3,4-tetrahydroquinoline-6-carbonitrile] | < 10 |
| COC[C@@]1(C)C[C@H](N2CCCc3cc(Cl)cc(-c4ccnc5cc(CN6C(=O)CCC6=O)sc45)c32)CN1 [Example 200, 1-((7-(6-chloro-1-((3S,5R)-5-(methoxymethyl)-5-methylpyrrolidin-3-yl)-1,2,3,4-tetrahydroquinolin-8-yl)thieno[3,2-b]pyridin-2-yl)methyl)pyrrolidine-2,5-dione] | 10 to 100 |
| C[C@@]1(C(=O)O)C[C@H](N2CCCc3cc(Cl)cc(-c4ccnc5cc(CN6C(=O)CCC6=O)sc45)c32)CN1 [Example 205, (2S,4S)-4-(6-chloro-8-(2-((2,5-dioxopyrrolidin-1-yl)methyl)thieno[3,2-b]pyridin-7-yl)-3,4-dihydroquinolin-1(2H)-yl)-2-methylpyrrolidine-2-carboxylic acid] | < 10 |
| C[C@]1(CO)C[C@H](N2CCCc3cc(C#N)cc(-c4ccnc5cc(CN6C(=O)C7CC7C6=O)sc45)c32)CN1 (stereo partly drawn) [Example 206, 8-(2-((2,4-dioxo-3-azabicyclo[3.1.0]hexan-3-yl)methyl)thieno[3,2-b]pyridin-7-yl)-1-((3S,5R)-5-(hydroxymethyl)-5-methylpyrrolidin-3-yl)-1,2,3,4-tetrahydroquinoline-6-carbonitrile] | < 10 |
| C[C@]1(CO)C[C@H](N2CCCc3cc(Cl)cc(-c4ccnc5cc(Cn6ncc(C7(C(F)(F)F)CC7)cc6=O)sc45)c32)CN1 [Example 207, 2-((7-(6-chloro-1-((3S,5R)-5-(hydroxymethyl)-5-methylpyrrolidin-3-yl)-1,2,3,4-tetrahydroquinolin-8-yl)thieno[3,2-b]pyridin-2-yl)methyl)-5-(1-(trifluoromethyl)cyclopropyl)pyridazin-3(2H)-one] | < 10 |
| C[C@]1(CO)C[C@H](N2CCCc3cc(Cl)cc(-c4cc[n+]([O-])c5cc(CN6C(=O)CCC6=O)sc45)c32)CN1 [Example 208, 7-(6-chloro-1-((3S,5R)-5-(hydroxymethyl)-5-methylpyrrolidin-3-yl)-1,2,3,4-tetrahydroquinolin-8-yl)-2-((2,5-dioxopyrrolidin-1-yl)methyl)thieno[3,2-b]pyridine 4-oxide] | < 10 |

More lines, now with the values ahead:

| IC50 [nM] | Compound |
| --- | --- |
| > 1000 | O=C1CCC(=O)N1Cc1cc2ncnc(-c3cc(Cl)cc4c3N([C@H]3CNC5(CCC5)C3)C[C@H]3C[C@@H]43)c2s1 [Example 167b, 1-((4-((1aS,7bR)-6-chloro-3-((R)-5-azaspiro[3.4]octan-7-yl)-1a,2,3,7b-tetrahydro-1H-cyclopropa[c]quinolin-4-yl)thieno[3,2-d]pyrimidin-6-yl)methyl)pyrrolidine-2,5-dione] |
| 10 to 100 | O=C1CCC(=O)N1Cc1cc2ncnc(-c3cc(Cl)cc4c3N([C@H]3CNC5(CCC5)C3)C[C@@H]3C[C@H]43)c2s1 [Example 167c, 1-((4-((1aR,7bS)-6-chloro-3-((R)-5-azaspiro[3.4]octan-7-yl)-1a,2,3,7b-tetrahydro-1H-cyclopropa[c]quinolin-4-yl)thieno[3,2-d]pyrimidin-6-yl)methyl)pyrrolidine-2,5-dione] |
| < 10 | Cc1ccnn(Cc2cc3nccc(-c4cc(C(F)(F)F)cc5c4N([C@@H]4CNC6(CCC6)C4)CCO5)c3s2)c1=O [Example 176b, (S)-2-((7-(4-(5-azaspiro[3.4]octan-7-yl)-7-(trifluoromethyl)-3,4-dihydro-2H-benzo[b][1,4]oxazin-5-yl)thieno[3,2-b]pyridin-2-yl)methyl)-4-methylpyridazin-3(2H)-one] |
| 101 to 1000 | N#Cc1cc2c(c(-c3ccnc4cc(CN5C(=O)C6CC6C5=O)sc34)c1)N([C@H]1CNC3(CCCC3)C1)CCC2 (stereo partly drawn) [Example 178a, 8-(2-((2,4-dioxo-3-azabicyclo[3.1.0]hexan-3-yl)methyl)thieno[3,2-b]pyridin-7-yl)-1-((R)-1-azaspiro[4.4]nonan-3-yl)-1,2,3,4-tetrahydroquinoline-6-carbonitrile] |
| < 10 | N#Cc1cc2c(c(-c3ccnc4cc(CN5C(=O)C6CC6C5=O)sc34)c1)N([C@@H]1CNC3(CCCC3)C1)CCC2 (stereo partly drawn) [Example 178b, 8-(2-((2,4-dioxo-3-azabicyclo[3.1.0]hexan-3-yl)methyl)thieno[3,2-b]pyridin-7-yl)-1-((S)-1-azaspiro[4.4]nonan-3-yl)-1,2,3,4-tetrahydroquinoline-6-carbonitrile] |
| < 10 | N#Cc1cc(-c2ccnc3cc(Cn4ncc(C5(C(F)(F)F)CC5)cc4=O)sc23)c2c(c1)[C@@H]1C[C@@H]1CN2[C@@H]1CN[C@@H](CO)C1 [Example 194a, (1aS,7bR)-3-((3S,5R)-5-(hydroxymethyl)pyrrolidin-3-yl)-4-(2-((6-oxo-4-(1-(trifluoromethyl)cyclopropyl)pyridazin-1(6H)-yl)methyl)thieno[3,2-b]pyridin-7-yl)-1a,2,3,7b-tetrahydro-1H-cyclopropa[c]quinoline-6-carbonitrile] |
